This passage reports TGI and GI50 results from PubChem BioAssay (NCI).

Structures are written as SMILES.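 Each compound was tested at five concentrations against cells in 96-well plates for 48 hours. GI50 marks 50% less growth. TGI marks complete inhibition of growth.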

The first assay has as its system SF-295 CNS. Nature of the assay: NCI-60 cell line screen, 48 h.
In the case of `CCOC(=O)C1Cc2[nH]c3ccccc3c2C(C)C1C` (centres undefined), the TGI was determined as 42.3 µM.

The molecule `Cn1cc2ccccc2c1-c1nc(N)nc(F)n1` gave a TGI of more than 100 µM.

For `O=C1C(Cl)=C(N2CCN(C3=C(Cl)C(=O)c4ccccc4C3=O)CC2)C(=O)c2ccccc21`, the TGI was determined as 21.5 µM.

`CC1=C(O)C(=O)[C@@H]2O[C@@H]2C1=O` gave a TGI of 72.1 µM.

For the molecule `COc1ccc(-c2cc(-c3ccco3)c(C#N)c(=S)n2C2OC(COC(C)=O)C(OC(C)=O)C(OC(C)=O)C2OC(C)=O)cc1` (centres undefined), the TGI came out at 4.65 µM.

Take `COc1cc(/C=C2/C(=O)N(C(=O)c3ccccc3O)N=C2C)cc(OC)c1OC`: the TGI is more than 100 µM.

As to `CCCCCCCCCCCCCCCCCCNc1ccn(C2OC(COP(=O)(O)OCC3OC(n4ccc(NC(=O)CCCCCCCCCCCCCCCCC)nc4=O)C(OC(C)=O)C3OC(C)=O)C(OC(C)=O)C2OC(C)=O)c(=O)n1` (centres undefined), the TGI is more than 100 µM.

Turning to `COc1cccc(-c2cc(=O)c3ccccc3o2)c1N`, the TGI was more than 100 µM.

For the molecule `Cc1ccc(-c2c(C#N)c(-c3ccccc3)n(NS(=O)(=O)c3ccccc3)c(=O)c2C#N)cc1`, the TGI is more than 100 µM.

`COc1ccc(N2C(=O)C3c4[nH]c5ccc(OCc6ccccc6)cc5c4C4CCC(C(C)(C)C)CC4C3C2=O)cc1` (centres undefined) showed a TGI of more than 100 µM.

In turn, `COc1ccc(C(C#N)NNC(=O)c2ccccc2O)cc1OC` (centres undefined) displayed a TGI of more than 100 µM.

`O=c1[nH]n2c(=O)cc[nH]c2c1-c1nnns1` showed a TGI of more than 100 µM.

For `Cc1c(-c2nc3ccccc3[nH]2)c(=O)n(-c2ccccc2)n1C`, the TGI was more than 100 µM.

In turn, `CC(CN1c2ccccc2Sc2ccccc21)N(C)C` (centres undefined) yielded a TGI of 28.9 µM.

For the molecule `N.N.N.O=[N+]([O-])[O-].O=[N+]([O-])[O-].O=[N+]([O-])[O-].O=[N+]([O-])[O-].[Co+3]`, the TGI was more than 100 µM.

For the molecule `COc1cc(O)c(/C=N/N=C(\N)NO)c(OC)c1`, the TGI was more than 10 µM.

As to `CCCCN1C(=O)CC2[C@@H]3CCc4cc(OC(C)=O)ccc4C3CC[C@]2(C)C1=O` (some centres undefined), the TGI is more than 10 µM.

The next assay has as its system SNB-78 CNS. Briefly: NCI-60 cell line screen, 48 h.
For `CCOC(=O)C1Cc2[nH]c3ccccc3c2C(C)C1C` (centres undefined), the TGI was 62.4 µM.

The molecule `Cn1cc2ccccc2c1-c1nc(N)nc(F)n1` displayed a TGI of more than 100 µM.

For the molecule `O=C1C(Cl)=C(N2CCN(C3=C(Cl)C(=O)c4ccccc4C3=O)CC2)C(=O)c2ccccc21`, the TGI stood at 1.56 µM.

As for `CC1=C(O)C(=O)[C@@H]2O[C@@H]2C1=O`, the TGI was determined as 40.9 µM.

On to `COc1cc(/C=C2/C(=O)N(C(=O)c3ccccc3O)N=C2C)cc(OC)c1OC`, for which the TGI was more than 100 µM.

Molecule `COc1ccc(C(C#N)NNC(=O)c2ccccc2O)cc1OC` (centres undefined) returned a TGI of more than 100 µM.

Turning to `O=c1[nH]n2c(=O)cc[nH]c2c1-c1nnns1`, the TGI was more than 100 µM.

For the molecule `N.N.N.O=[N+]([O-])[O-].O=[N+]([O-])[O-].O=[N+]([O-])[O-].O=[N+]([O-])[O-].[Co+3]`, the GI50 was more than 100 µM and the TGI is more than 100 µM.

The next assay relates to OVCAR-8 ovarian. Nature of the assay: NCI-60 cell line screen, 48 h.
In the case of `CCOC(=O)C1Cc2[nH]c3ccccc3c2C(C)C1C` (centres undefined), the TGI stood at 13.4 µM.

As for `Cn1cc2ccccc2c1-c1nc(N)nc(F)n1`, the TGI was more than 100 µM.

Turning to `O=C1C(Cl)=C(N2CCN(C3=C(Cl)C(=O)c4ccccc4C3=O)CC2)C(=O)c2ccccc21`, the TGI amounted to 3.16 µM.

With `CC1=C(O)C(=O)[C@@H]2O[C@@H]2C1=O`, the TGI stood at 24.7 µM.

`COc1ccc(-c2cc(-c3ccco3)c(C#N)c(=S)n2C2OC(COC(C)=O)C(OC(C)=O)C(OC(C)=O)C2OC(C)=O)cc1` (centres undefined) registered a TGI of 13 µM.

The molecule `COc1cc(/C=C2/C(=O)N(C(=O)c3ccccc3O)N=C2C)cc(OC)c1OC` came in with a TGI of more than 100 µM.

In turn, `CCCCCCCCCCCCCCCCCCNc1ccn(C2OC(COP(=O)(O)OCC3OC(n4ccc(NC(=O)CCCCCCCCCCCCCCCCC)nc4=O)C(OC(C)=O)C3OC(C)=O)C(OC(C)=O)C2OC(C)=O)c(=O)n1` (centres undefined) came in with a TGI of more than 100 µM.

With `COc1cccc(-c2cc(=O)c3ccccc3o2)c1N`, the TGI was more than 100 µM.

`Cc1ccc(-c2c(C#N)c(-c3ccccc3)n(NS(=O)(=O)c3ccccc3)c(=O)c2C#N)cc1` gave a TGI of more than 100 µM.

Consider `COc1ccc(N2C(=O)C3c4[nH]c5ccc(OCc6ccccc6)cc5c4C4CCC(C(C)(C)C)CC4C3C2=O)cc1` (centres undefined), for which the TGI was more than 100 µM.

Molecule `COc1ccc(C(C#N)NNC(=O)c2ccccc2O)cc1OC` (centres undefined) came in with a TGI of more than 100 µM.

In turn, `Cc1c(-c2nc3ccccc3[nH]2)c(=O)n(-c2ccccc2)n1C` showed a TGI of more than 100 µM.

On to `CC(CN1c2ccccc2Sc2ccccc21)N(C)C` (centres undefined), for which the TGI came out at 29.8 µM.

Regarding `N.N.N.O=[N+]([O-])[O-].O=[N+]([O-])[O-].O=[N+]([O-])[O-].O=[N+]([O-])[O-].[Co+3]`, the TGI was more than 100 µM.

As for `COc1cc(O)c(/C=N/N=C(\N)NO)c(OC)c1`, the TGI was more than 10 µM.

As for `CCCCN1C(=O)CC2[C@@H]3CCc4cc(OC(C)=O)ccc4C3CC[C@]2(C)C1=O` (some centres undefined), the TGI is more than 10 µM.

In a further assay the test system is SK-MEL-28 melanoma. Briefly: NCI-60 cell line screen, 48 h.
In turn, `CCOC(=O)C1Cc2[nH]c3ccccc3c2C(C)C1C` (centres undefined) displayed a TGI of 33.7 µM.

As for `Cn1cc2ccccc2c1-c1nc(N)nc(F)n1`, the TGI is more than 100 µM.

`O=C1C(Cl)=C(N2CCN(C3=C(Cl)C(=O)c4ccccc4C3=O)CC2)C(=O)c2ccccc21`: the TGI came to 3.48 µM.

`CC1=C(O)C(=O)[C@@H]2O[C@@H]2C1=O` displayed a TGI of 16.7 µM.

The molecule `COc1ccc(-c2cc(-c3ccco3)c(C#N)c(=S)n2C2OC(COC(C)=O)C(OC(C)=O)C(OC(C)=O)C2OC(C)=O)cc1` (centres undefined) came in with a TGI of 12.7 µM.

`COc1cc(/C=C2/C(=O)N(C(=O)c3ccccc3O)N=C2C)cc(OC)c1OC` displayed a TGI of more than 100 µM.

As to `CCCCCCCCCCCCCCCCCCNc1ccn(C2OC(COP(=O)(O)OCC3OC(n4ccc(NC(=O)CCCCCCCCCCCCCCCCC)nc4=O)C(OC(C)=O)C3OC(C)=O)C(OC(C)=O)C2OC(C)=O)c(=O)n1` (centres undefined), the TGI is more than 100 µM.

`COc1cccc(-c2cc(=O)c3ccccc3o2)c1N` displayed a TGI of more than 100 µM.

`Cc1ccc(-c2c(C#N)c(-c3ccccc3)n(NS(=O)(=O)c3ccccc3)c(=O)c2C#N)cc1` displayed a TGI of more than 100 µM.

The molecule `COc1ccc(N2C(=O)C3c4[nH]c5ccc(OCc6ccccc6)cc5c4C4CCC(C(C)(C)C)CC4C3C2=O)cc1` (centres undefined) showed a TGI of more than 100 µM.

Consider `COc1ccc(C(C#N)NNC(=O)c2ccccc2O)cc1OC` (centres undefined), for which the TGI is more than 100 µM.

In turn, `O=c1[nH]n2c(=O)cc[nH]c2c1-c1nnns1` displayed a TGI of more than 100 µM.

For `Cc1c(-c2nc3ccccc3[nH]2)c(=O)n(-c2ccccc2)n1C`, the TGI was more than 100 µM.

Molecule `CC(CN1c2ccccc2Sc2ccccc21)N(C)C` (centres undefined) yielded a TGI of 32.5 µM.

`N.N.N.O=[N+]([O-])[O-].O=[N+]([O-])[O-].O=[N+]([O-])[O-].O=[N+]([O-])[O-].[Co+3]` registered a TGI of more than 100 µM.

For `COc1cc(O)c(/C=N/N=C(\N)NO)c(OC)c1`, the TGI is more than 10 µM.

`CCCCN1C(=O)CC2[C@@H]3CCc4cc(OC(C)=O)ccc4C3CC[C@]2(C)C1=O` (some centres undefined) registered a TGI of more than 10 µM.

The test system of the next assay is SF-539 CNS. Briefly: NCI-60 cell line screen, 48 h.
Take `CCOC(=O)C1Cc2[nH]c3ccccc3c2C(C)C1C` (centres undefined): the TGI came to 31.4 µM.

On to `Cn1cc2ccccc2c1-c1nc(N)nc(F)n1`, for which the TGI is more than 100 µM.

`O=C1C(Cl)=C(N2CCN(C3=C(Cl)C(=O)c4ccccc4C3=O)CC2)C(=O)c2ccccc21` yielded a TGI of 3.15 µM.

The molecule `CC1=C(O)C(=O)[C@@H]2O[C@@H]2C1=O` registered a TGI of 41.9 µM.

On to `COc1ccc(-c2cc(-c3ccco3)c(C#N)c(=S)n2C2OC(COC(C)=O)C(OC(C)=O)C(OC(C)=O)C2OC(C)=O)cc1` (centres undefined), for which the TGI was determined as 4.56 µM.

The molecule `COc1cc(/C=C2/C(=O)N(C(=O)c3ccccc3O)N=C2C)cc(OC)c1OC` displayed a TGI of 6.39 µM.

`CCCCCCCCCCCCCCCCCCNc1ccn(C2OC(COP(=O)(O)OCC3OC(n4ccc(NC(=O)CCCCCCCCCCCCCCCCC)nc4=O)C(OC(C)=O)C3OC(C)=O)C(OC(C)=O)C2OC(C)=O)c(=O)n1` (centres undefined) showed a TGI of more than 100 µM.

Turning to `COc1cccc(-c2cc(=O)c3ccccc3o2)c1N`, the TGI was more than 100 µM.

`Cc1ccc(-c2c(C#N)c(-c3ccccc3)n(NS(=O)(=O)c3ccccc3)c(=O)c2C#N)cc1` yielded a TGI of more than 100 µM.

`COc1ccc(N2C(=O)C3c4[nH]c5ccc(OCc6ccccc6)cc5c4C4CCC(C(C)(C)C)CC4C3C2=O)cc1` (centres undefined) displayed a TGI of more than 100 µM.

`COc1ccc(C(C#N)NNC(=O)c2ccccc2O)cc1OC` (centres undefined) yielded a TGI of 6.81 µM.

`O=c1[nH]n2c(=O)cc[nH]c2c1-c1nnns1` returned a TGI of more than 100 µM.

Regarding `Cc1c(-c2nc3ccccc3[nH]2)c(=O)n(-c2ccccc2)n1C`, the TGI is more than 100 µM.

`CC(CN1c2ccccc2Sc2ccccc21)N(C)C` (centres undefined) registered a TGI of 34 µM.

As for `N.N.N.O=[N+]([O-])[O-].O=[N+]([O-])[O-].O=[N+]([O-])[O-].O=[N+]([O-])[O-].[Co+3]`, the TGI was more than 100 µM.

On to `COc1cc(O)c(/C=N/N=C(\N)NO)c(OC)c1`, for which the TGI is more than 10 µM.

`CCCCN1C(=O)CC2[C@@H]3CCc4cc(OC(C)=O)ccc4C3CC[C@]2(C)C1=O` (some centres undefined) showed a TGI of more than 10 µM.

The subject of another assay is SK-OV-3 ovarian. Nature of the assay: NCI-60 cell line screen, 48 h.
As to `CCOC(=O)C1Cc2[nH]c3ccccc3c2C(C)C1C` (centres undefined), the TGI came out at 45.3 µM.

`Cn1cc2ccccc2c1-c1nc(N)nc(F)n1` came in with a TGI of more than 100 µM.

For the molecule `O=C1C(Cl)=C(N2CCN(C3=C(Cl)C(=O)c4ccccc4C3=O)CC2)C(=O)c2ccccc21`, the TGI was 28 µM.
